Values of other authors as cited in patent publication US6683056B2, “O-aryl glucoside SGLT2 inhibitors and method” (Bristol-Myers Squibb Company, priority 2000, dated 2004).

Columns and labels:
SGLT2 = target: T1, SGLT2 (Homo sapiens, UniProt P31639); conditions: read-out: Km values for uptake
T1 sequence (P31639 1-672): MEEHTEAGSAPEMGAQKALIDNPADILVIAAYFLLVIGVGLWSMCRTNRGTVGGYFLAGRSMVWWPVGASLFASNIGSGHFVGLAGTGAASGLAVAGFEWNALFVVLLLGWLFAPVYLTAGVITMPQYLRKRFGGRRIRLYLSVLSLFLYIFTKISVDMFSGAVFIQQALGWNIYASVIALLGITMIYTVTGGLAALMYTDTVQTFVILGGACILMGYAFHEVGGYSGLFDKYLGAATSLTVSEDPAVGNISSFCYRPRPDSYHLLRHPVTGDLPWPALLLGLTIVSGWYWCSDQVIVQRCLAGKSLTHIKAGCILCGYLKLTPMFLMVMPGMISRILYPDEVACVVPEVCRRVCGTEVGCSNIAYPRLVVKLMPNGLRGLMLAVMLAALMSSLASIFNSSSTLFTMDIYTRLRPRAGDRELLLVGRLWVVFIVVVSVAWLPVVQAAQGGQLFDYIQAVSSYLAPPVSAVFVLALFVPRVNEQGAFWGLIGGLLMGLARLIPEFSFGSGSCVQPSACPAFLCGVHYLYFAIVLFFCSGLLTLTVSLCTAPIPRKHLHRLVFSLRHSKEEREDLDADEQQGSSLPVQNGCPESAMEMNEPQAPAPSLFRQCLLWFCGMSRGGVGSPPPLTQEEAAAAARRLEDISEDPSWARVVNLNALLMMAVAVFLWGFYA

SGLT1 = target: T2, SGLT1 (Homo sapiens, UniProt P13866)
T2 sequence (P13866 1-664): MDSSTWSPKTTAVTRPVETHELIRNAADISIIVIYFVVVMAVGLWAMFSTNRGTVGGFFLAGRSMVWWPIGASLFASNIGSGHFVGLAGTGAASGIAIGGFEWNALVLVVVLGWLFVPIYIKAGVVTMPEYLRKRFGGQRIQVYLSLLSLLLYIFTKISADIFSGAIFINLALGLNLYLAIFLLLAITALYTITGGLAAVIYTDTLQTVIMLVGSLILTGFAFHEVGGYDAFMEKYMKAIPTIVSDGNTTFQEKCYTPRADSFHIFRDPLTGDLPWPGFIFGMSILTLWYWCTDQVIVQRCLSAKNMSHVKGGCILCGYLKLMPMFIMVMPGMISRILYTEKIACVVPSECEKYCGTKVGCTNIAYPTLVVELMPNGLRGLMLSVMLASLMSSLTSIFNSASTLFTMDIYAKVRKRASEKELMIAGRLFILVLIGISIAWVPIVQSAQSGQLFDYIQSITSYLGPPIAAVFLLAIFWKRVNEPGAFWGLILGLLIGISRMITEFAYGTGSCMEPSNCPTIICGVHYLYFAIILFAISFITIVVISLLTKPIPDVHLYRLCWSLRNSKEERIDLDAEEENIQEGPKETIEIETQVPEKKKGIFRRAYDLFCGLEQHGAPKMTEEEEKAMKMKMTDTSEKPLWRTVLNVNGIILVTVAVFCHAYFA

[1] = test system: facilitative glucose transporters (GLUTs)
[2] = oral
normal animals = conditions: despite the presence of glycosuria
[3] = test system: several diabetic rodent models and one canine diabetes model

## CO[C@H]1O[C@H](CO)[C@@H](O)[C@H](O)[C@H]1O [AMG, α-methyl-D-glucopyranoside]
SGLT2
  Km: 1600 µM
SGLT1; SGLT1, read-out: Km values for uptake
  Km: 400 µM

## O=C[C@H](O)[C@@H](O)[C@@H](O)[C@H](O)CO [galactose]
SGLT1; SGLT1 versus SGLT2
  substrate specificity: substrate for SGLT1 only

## O=C(CCc1ccc(O)cc1)c1c(O)cc(O)cc1O [phloretin]
[1]
  inhibition of facilitated glucose transport: potent inhibitor of facilitated glucose transport

## O=C(CCc1ccc(O)cc1)c1c(O)cc(O)cc1O[C@@H]1O[C@H](CO)[C@@H](O)[C@H](O)[C@H]1O [phlorizin]
[2]
  stability in the gut: hydrolyzed in the gut to its aglycone phloretin
Normal animals
  hypoglycemic or other adverse effects: no hypoglycemic or other adverse effects
[3]; diabetic rodent models and one canine diabetes model
  in vivo effect on glucose excretion and plasma glucose: promoting glucose excretion, lowering fasting and fed plasma glucose, and promoting glucose utilization without hypoglycemic side effects
[3]; treatment for as long as two weeks
  adverse effects of treatment: No adverse effects on plasma ion balance, renal function or renal morphology
